Reference: paper PMC12187371 (Neuro-Oncology, 2024)

Columns and labels:
HEI-193 cells [1] = assay: HEI-193 cell viability; assay type: cell-based, human; conditions: WST-8, 3 days
normal human fibroblasts [2] = assay: Normal human fibroblast viability; assay type: cell-based; conditions: WST-8, 3 days
normal human fibroblasts [3] = assay: Apoptosis markers in normal human fibroblasts; assay type: cell-based; conditions: 1 day
HEI-193 cells [4] = assay: Western blotting of differentiation and cell cycle markers in HEI-193 cells; assay type: cell-based, human; conditions: 7 days
[5] = system: NF2-associated vestibular schwannomas; conditions: progressive NF2-associated vestibular schwannomas; cited from earlier work

| Compound | proliferation of HEI-193 cells (HEI-193 cells [1]) | toxicity in human normal fibroblasts (normal human fibroblasts [2]) | cytochrome c release from mitochondria (normal human fibroblasts [3]) | expression of SOX10, MBP, p21 and p27 (HEI-193 cells [4]) | expression of stem cell factor SOX2 (HEI-193 cells [4]) | patients with improved hearing and reduced tumor volume [5] |
| --- | --- | --- | --- | --- | --- | --- |
| Cn1cnc2c(F)c(Nc3ccc(Br)cc3Cl)c(C(=O)NOCCO)cc21 [Selumetinib] | did not exhibit any effect |  |  |  |  |  |
| COc1cc(N2CCC(N3CCN(C)CC3)CC2)ccc1Nc1ncc(Cl)c(Nc2ccccc2P(C)(C)=O)n1 [Brigatinib] | dose-dependently reduced | showed toxicity | induced cytochrome c release | decreased the expression of all these markers | decreased the expression of all these markers |  |
| Bevacizumab |  |  |  |  |  | about 40 % of patients |
